First: CC(C)=NOCc1nc2c(N)nc3ccccc3c2s1 [Example 1, Acetone O-[(4-amino[1,3]thiazolo[4,5-c]quinolin-2-yl)methyl]oxime]
Second: CC(C)=NOCc1nc2c(N)nc3cc(Br)ccc3c2s1 [Example 2, Acetone O-(4-amino-7-bromo[1,3]thiazolo[4,5-c]quinolin-2-ylmethyl)oxime]
The melting point of the first is lower: 152 to 153 °C for the first, 211 to 213 °C for the second.

First: CON=Cc1nc2c(N)nc3cc(Br)ccc3c2s1 [Example 3, 4-Amino-7-bromo[1,3]thiazolo[4,5-c]quinoline-2-carbaldehyde O-methyloxime]
Second: CON=Cc1nc2c(N)nc3cc(-c4ccccc4)ccc3c2s1 [Example 138, 4-Amino-7-phenyl-thiazolo[4,5-c]quinoline-2-carbaldehyde O-methyl-oxime]
The melting point of the first is higher: 262 to 264 °C for the first, 259 to 261 °C for the second.

For CON=Cc1nc2c(N)nc3cc(-c4cccc(NS(C)(=O)=O)c4)ccc3c2s1 [Example 139, N-{3-[4-Amino-2-(methoxyimino-methyl)-thiazolo[4,5-c]quinolin-7-yl]-phenyl}-methanesulfonamide], the melting point was 254 to 256 °C.
